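96-well plates; 48 h exposure; 5 concentrations. Endpoints by linear interpolation between flanking doses. Not reached: highest tested concentration assigned. GI50 marks 50% less growth.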 Active and inactive are the calls of the source. No stated cut-off is given here; in the data, active = GI50 up to about 1.1 µM and inactive = higher.
What was measured:
Test in all cases: DTP human tumour cell line panel, 48 h
SK-MEL-5 = system: SK-MEL-5
OVCAR-8 = system: OVCAR-8
OVCAR-3 = system: OVCAR-3
UACC-257 = system: UACC-257
U-251 = system: U-251
NCI-H226 = system: NCI-H226
SK-MEL-28 = system: SK-MEL-28
A549 = system: A549
RXF 393 = system: RXF 393
NCI-H522 = system: NCI-H522
UO-31 = system: UO-31
KM12 = system: KM12
HCC 2998 = system: HCC 2998
K562 = system: K562
SK-OV-3 = system: SK-OV-3
A498 = system: A498
HL-60 = system: HL-60
SN12C = system: SN12C

Measured: GI50

CCCCCCCCCC1CC(=O)OC23CCCC(=O)C12O3 (stereo unspecified)
inactive: SK-MEL-5 74.5 µM | OVCAR-8 52.1 µM | OVCAR-3 > 100 µM | UACC-257 > 100 µM | U-251 97.1 µM | NCI-H226 > 100 µM | SK-MEL-28 > 100 µM | A549 > 100 µM | RXF 393 > 100 µM | NCI-H522 94.6 µM | UO-31 > 100 µM | KM12 82.2 µM | HCC 2998 56.8 µM | K562 55.1 µM | SK-OV-3 > 100 µM | A498 71.9 µM | HL-60 26.7 µM | SN12C > 100 µM

N#CC(C(=O)/C(=N\NC(N)=O)C(C#N)c1ccccc1)c1ccccc1 (stereo unspecified)
inactive: OVCAR-8 > 100 µM | OVCAR-3 > 100 µM | UACC-257 > 100 µM | U-251 > 100 µM | NCI-H226 > 100 µM | SK-MEL-28 > 100 µM | A549 > 100 µM | RXF 393 > 100 µM | NCI-H522 > 100 µM | UO-31 > 100 µM | KM12 > 100 µM | HCC 2998 > 100 µM | K562 > 100 µM | SK-OV-3 > 100 µM | A498 > 100 µM | HL-60 > 100 µM | SN12C > 100 µM

COc1ccc2c(c1)C1C(CO2)C(c2ccccc2)=NN1c1ccccc1 (stereo unspecified)
inactive: SK-MEL-5 > 100 µM | OVCAR-8 > 100 µM | OVCAR-3 > 100 µM | UACC-257 > 100 µM | U-251 > 100 µM | SK-MEL-28 70.3 µM | A549 > 100 µM | RXF 393 35.6 µM | NCI-H522 > 100 µM | UO-31 > 100 µM | KM12 > 100 µM | HCC 2998 > 100 µM | K562 > 100 µM | SK-OV-3 > 100 µM | A498 > 100 µM | HL-60 99.5 µM

CC(C)(C)C1CCC(CI)(N=[N+]=[N-])CC1 (stereo unspecified)
inactive: SK-MEL-5 > 100 µM | OVCAR-8 > 100 µM | OVCAR-3 > 100 µM | UACC-257 > 100 µM | U-251 > 100 µM | NCI-H226 > 100 µM | A549 > 100 µM | RXF 393 > 100 µM | NCI-H522 > 100 µM | UO-31 > 100 µM | KM12 > 100 µM | HCC 2998 > 100 µM | K562 > 100 µM | SK-OV-3 > 100 µM | A498 > 100 µM | HL-60 42.8 µM | SN12C > 100 µM

CCOc1ccc(/C=C(\Cl)c2ccc(OC)c(OC)c2)cc1
inactive: SK-MEL-5 26.5 µM | OVCAR-8 63.8 µM | UACC-257 21 µM | U-251 > 100 µM | NCI-H226 33.1 µM | SK-MEL-28 38.5 µM | A549 35.2 µM | RXF 393 12.4 µM | NCI-H522 19.2 µM | UO-31 28.7 µM | HCC 2998 41.6 µM | K562 30.8 µM | SK-OV-3 77.1 µM | A498 27.6 µM | HL-60 21.8 µM | SN12C 60.3 µM

Nc1ccccc1C(=O)C(Br)C(Br)c1ccc2c(c1)OCO2 (stereo unspecified)
inactive: OVCAR-8 27.6 µM | OVCAR-3 16.7 µM | UACC-257 19.1 µM | U-251 21.6 µM | NCI-H226 20 µM | SK-MEL-28 23.4 µM | A549 20.6 µM | RXF 393 19.7 µM | NCI-H522 18.5 µM | UO-31 15.5 µM | KM12 18 µM | HCC 2998 20.3 µM | K562 31.1 µM | SK-OV-3 28.6 µM | A498 24.4 µM | HL-60 40.7 µM | SN12C 24.9 µM
